In ChEMBL document CHEMBL3886335, “Difluorolactam compounds as EP4 receptor-selective agonists for use in the treatment of EP4-mediated diseases and conditions” (2015):

Target: Prostaglandin E2 receptor EP4 subtype (Homo sapiens, UniProt P35408)
Experiment: The filters are dried then counted for radioactivity in a scintillation counter (Topcount, Packard) using a scintillation cocktail (Microscint 0, Packard).
Format: cell membranes

Sequence of Prostaglandin E2 receptor EP4 subtype (P35408 whole entry): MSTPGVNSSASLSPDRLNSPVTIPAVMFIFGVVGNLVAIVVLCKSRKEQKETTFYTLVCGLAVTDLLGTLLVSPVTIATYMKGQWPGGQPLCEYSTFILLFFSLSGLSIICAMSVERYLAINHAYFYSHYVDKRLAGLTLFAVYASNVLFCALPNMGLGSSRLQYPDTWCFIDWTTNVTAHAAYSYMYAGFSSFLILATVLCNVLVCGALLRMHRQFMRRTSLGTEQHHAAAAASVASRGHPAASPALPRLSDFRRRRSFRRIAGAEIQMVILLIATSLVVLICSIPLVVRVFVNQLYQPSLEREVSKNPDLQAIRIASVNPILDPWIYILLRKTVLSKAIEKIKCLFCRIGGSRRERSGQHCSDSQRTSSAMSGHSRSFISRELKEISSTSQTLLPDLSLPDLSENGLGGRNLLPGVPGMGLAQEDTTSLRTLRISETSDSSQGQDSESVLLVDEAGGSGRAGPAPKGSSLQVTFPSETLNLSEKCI

IC50: 3.3 nM
Ki: 1.2 nM
Structure (SMILES): CCC#CC[C@H](C)[C@H](O)/C=C/[C@H]1CC(F)(F)C(=O)N1CCCc1ccc(C(=O)O)s1
